Assay results as given in ChEMBL document CHEMBL1201862, “PubChem BioAssay data set” (2004).
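Five compound concentrations were applied to cells in 96-well plates for 48 hours; endpoints were derived by simple linear interpolation of the resulting dose-response curve. Here, GI50 denotes the concentration required for 50% inhibition of growth.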 The source made the active and inactive calls. Cut-off read from the data, not from the text of the source: active = GI50 up to about 1.1 µM and inactive = higher.

What was measured:
Test in all cases: growth of human tumour cells (NCI), 48 h
A498 = tested on: A498
DU-145 = tested on: DU-145
EKVX = tested on: EKVX
HL-60 = tested on: HL-60
IGROV-1 = tested on: IGROV-1
K562 = tested on: K562
KM12 = tested on: KM12
MDA-MB-435 = tested on: MDA-MB-435
MDA-N = tested on: MDA-N
MOLT-4 = tested on: MOLT-4
Malme-3M = tested on: Malme-3M
NCI-H226 = tested on: NCI-H226
NCI-H522 = tested on: NCI-H522
OVCAR-4 = tested on: OVCAR-4
OVCAR-5 = tested on: OVCAR-5
OVCAR-8 = tested on: OVCAR-8
SF-539 = tested on: SF-539
T47D = tested on: T47D
UACC-257 = tested on: UACC-257
UO-31 = tested on: UO-31

| SMILES | GI50 (A498) | GI50 (DU-145) | GI50 (EKVX) | GI50 (HL-60) | GI50 (IGROV-1) | GI50 (K562) | GI50 (KM12) | GI50 (MDA-MB-435) | GI50 (MDA-N) | GI50 (MOLT-4) | GI50 (Malme-3M) | GI50 (NCI-H226) | GI50 (NCI-H522) | GI50 (OVCAR-4) | GI50 (OVCAR-5) | GI50 (OVCAR-8) | GI50 (SF-539) | GI50 (T47D) | GI50 (UACC-257) | GI50 (UO-31) |
| --- | --- | --- | --- | --- | --- | --- | --- | --- | --- | --- | --- | --- | --- | --- | --- | --- | --- | --- | --- | --- |
| Nc1nc(Sc2ccc([N+](=O)[O-])c3nonc23)c2nc[nH]c2n1 | 13.7 µM (inactive) | 0.705 µM (active) | 1.85 µM (inactive) | 1.71 µM (inactive) | 3.57 µM (inactive) | 0.369 µM (active) | 3.21 µM (inactive) | 0.59 µM (active) | 0.91 µM (active) | 0.301 µM (active) | 1.02 µM (active) | 1.75 µM (inactive) | 0.733 µM (active) | 1.14 µM (inactive) | 1.02 µM (active) | 0.721 µM (active) | 1.53 µM (inactive) | 1.2 µM (inactive) | 2.13 µM (inactive) | 0.716 µM (active) |
| CC1(C)NC2C(=O)c3c([nH]c4ccccc34)[C@]3(C)CCC1CC23 (stereo not given in full) | > 100 µM (inactive) | > 100 µM (inactive) | > 100 µM (inactive) | > 100 µM (inactive) | > 100 µM (inactive) | 96.8 µM (inactive) | > 100 µM (inactive) | > 100 µM (inactive) | > 100 µM (inactive) | 59.4 µM (inactive) | > 100 µM (inactive) | > 100 µM (inactive) | > 100 µM (inactive) | 60.8 µM (inactive) | > 100 µM (inactive) | > 100 µM (inactive) | > 100 µM (inactive) | 21.6 µM (inactive) | > 100 µM (inactive) | > 100 µM (inactive) |
| O=C(O)c1nn(-c2ccccc2-c2nnc(O)nc2O)c(=O)[nH]c1=O | > 100 µM (inactive) | > 100 µM (inactive) | > 100 µM (inactive) | 30.5 µM (inactive) | > 100 µM (inactive) | 2.47 µM (inactive) | > 100 µM (inactive) | > 100 µM (inactive) | > 100 µM (inactive) | 4.73 µM (inactive) | > 100 µM (inactive) | > 100 µM (inactive) | > 100 µM (inactive) | > 100 µM (inactive) | > 100 µM (inactive) | > 100 µM (inactive) | > 100 µM (inactive) | > 100 µM (inactive) | > 100 µM (inactive) | > 100 µM (inactive) |
| O=C(O)C1=NN(c2ccc(S(=O)(=O)O)cc2)C2(C1)C(Cl)C(=O)N2c1nc2ccccc2s1 (stereo not given) | 19.1 µM (inactive) | 19.1 µM (inactive) | 16 µM (inactive) | 16.2 µM (inactive) | 7.83 µM (inactive) | 22.1 µM (inactive) | 14.9 µM (inactive) | 16.2 µM (inactive) | 21.4 µM (inactive) | 15.3 µM (inactive) | 20.5 µM (inactive) | 16.5 µM (inactive) | 10.7 µM (inactive) | 16.4 µM (inactive) | 17.1 µM (inactive) | 17.6 µM (inactive) | 4.4 µM (inactive) | 20.5 µM (inactive) | 17.2 µM (inactive) | 8.3 µM (inactive) |
| COc1ccccc1/C=C/C1=NN(c2cccc(S(=O)(=O)O)c2)C2(C1)SCC(=O)N2c1nc2ccccc2s1 (stereo not given) | 83.4 µM (inactive) | 89.7 µM (inactive) | 68.2 µM (inactive) | 50.2 µM (inactive) | 21.4 µM (inactive) | 36.2 µM (inactive) | 41.1 µM (inactive) | > 100 µM (inactive) | > 100 µM (inactive) | 36.7 µM (inactive) | > 100 µM (inactive) | 31.7 µM (inactive) | 36.7 µM (inactive) | 86.7 µM (inactive) | > 100 µM (inactive) | 53.2 µM (inactive) | > 100 µM (inactive) | 20.4 µM (inactive) | 97.7 µM (inactive) | 71.9 µM (inactive) |
| CC(=O)Nc1ccc(Cc2ccc3nc(O)cc(C)c3c2)cc1 | > 100 µM (inactive) | 32.5 µM (inactive) | 65.3 µM (inactive) | > 100 µM (inactive) | 61.2 µM (inactive) | > 100 µM (inactive) | > 100 µM (inactive) | > 100 µM (inactive) | > 100 µM (inactive) | > 100 µM (inactive) | 87.7 µM (inactive) | > 100 µM (inactive) | 48.8 µM (inactive) | > 100 µM (inactive) | > 100 µM (inactive) | > 100 µM (inactive) | 68.7 µM (inactive) | 55.3 µM (inactive) | 67 µM (inactive) | > 100 µM (inactive) |
| CN1CCCN(C)C1c1cc([N+](=O)[O-])ccc1O | > 100 µM (inactive) | 36.9 µM (inactive) | 38.6 µM (inactive) | 21.5 µM (inactive) | 26.3 µM (inactive) | 39 µM (inactive) | 36.6 µM (inactive) | 31.2 µM (inactive) | 40.7 µM (inactive) | 22.1 µM (inactive) | 23.5 µM (inactive) | 34.1 µM (inactive) | 33.9 µM (inactive) | 32 µM (inactive) | > 100 µM (inactive) | 35.6 µM (inactive) | 25.2 µM (inactive) | 47.6 µM (inactive) | 19 µM (inactive) | 0.436 µM (active) |
| O=C(O)C1CCCN1C(=O)c1cc(Cl)ccn1 (stereo not given) | > 100 µM (inactive) | > 100 µM (inactive) | > 100 µM (inactive) | > 100 µM (inactive) | > 100 µM (inactive) | > 100 µM (inactive) | > 100 µM (inactive) | > 100 µM (inactive) | > 100 µM (inactive) | > 100 µM (inactive) | > 100 µM (inactive) | > 100 µM (inactive) | > 100 µM (inactive) | > 100 µM (inactive) | > 100 µM (inactive) | > 100 µM (inactive) | > 100 µM (inactive) | > 100 µM (inactive) | > 100 µM (inactive) | > 100 µM (inactive) |
| CCCn1c2c(c3ccccc3c1=O)C(=O)c1ccccc1-2 | > 48.4 µM (inactive) | > 48.2 µM (inactive) | > 76.7 µM (inactive) | 1.78 µM (inactive) | > 57.7 µM (inactive) | > 100 µM (inactive) | 20.7 µM (inactive) | > 100 µM (inactive) | > 100 µM (inactive) | 3.61 µM (inactive) | 76.7 µM (inactive) | > 46.5 µM (inactive) | 2.37 µM (inactive) | > 100 µM (inactive) | > 100 µM (inactive) | 61.1 µM (inactive) | > 55.2 µM (inactive) | > 54.1 µM (inactive) | > 100 µM (inactive) | > 19.7 µM (inactive) |
| CC12CCC(C(Br)(Br)C1=O)C2(C)C (stereo not given) | 3.68 µM (inactive) | 6.08 µM (inactive) | 0.493 µM (active) | < 0.0148 µM (active) | < 0.0422 µM (active) | < 0.0202 µM (active) | 2.77 µM (inactive) | 0.0942 µM (active) | 0.196 µM (active) | 0.091 µM (active) | 0.056 µM (active) | 2.03 µM (inactive) | 0.0208 µM (active) | 0.333 µM (active) | 2.28 µM (inactive) | 1.69 µM (inactive) | 2.94 µM (inactive) | 0.0467 µM (active) | 2.74 µM (inactive) | 0.48 µM (active) |
| OC(c1cc(-c2ccccc2)nc2c1ccc1ccccc12)C1CCCCN1 (stereo not given) | 1.92 µM (inactive) | 2.02 µM (inactive) | 1.93 µM (inactive) | 0.855 µM (active) | 1.68 µM (inactive) | 2.54 µM (inactive) | 1.86 µM (inactive) | 1.83 µM (inactive) | 1.64 µM (inactive) | 2.18 µM (inactive) | 1.38 µM (inactive) | 2.95 µM (inactive) | 1.58 µM (inactive) | 1.96 µM (inactive) | 1.6 µM (inactive) | 1.96 µM (inactive) | 1.92 µM (inactive) | 1.93 µM (inactive) | 1.82 µM (inactive) | 1.02 µM (active) |
| CO/C(N)=C(C#N)/N=C/c1cccs1 | 33.2 µM (inactive) | > 100 µM (inactive) | 42.4 µM (inactive) | 22 µM (inactive) | 77.6 µM (inactive) | 42.2 µM (inactive) | > 100 µM (inactive) | 25.8 µM (inactive) | 27.4 µM (inactive) | 62.8 µM (inactive) | 35.3 µM (inactive) | > 100 µM (inactive) | 18.4 µM (inactive) | > 100 µM (inactive) | > 100 µM (inactive) | > 100 µM (inactive) | 92.7 µM (inactive) | 76.6 µM (inactive) | 32.5 µM (inactive) | > 100 µM (inactive) |
| Nc1ccn(C2OC(COP(=O)(O)OCC3OC(n4cc(F)c(=O)[nH]c4=O)CC3O)C(O)C2O)c(=O)n1 (stereo not given) | 0.225 µM (active) | 0.0828 µM (active) | > 100 µM (inactive) | 0.237 µM (active) | > 34 µM (inactive) | > 100 µM (inactive) | > 100 µM (inactive) | 1.58 µM (inactive) | 26.4 µM (inactive) | 0.0575 µM (active) | 3.07 µM (inactive) | > 22.9 µM (inactive) | 14.6 µM (inactive) | > 100 µM (inactive) | > 100 µM (inactive) | 1.37 µM (inactive) | < 0.0439 µM (active) | 4.47 µM (inactive) | > 21.5 µM (inactive) | 0.339 µM (active) |
| CC(=O)CCCCn1c(=O)c2c(nc(Br)n2C)n(C)c1=O | 95.9 µM (inactive) | > 100 µM (inactive) | 28.3 µM (inactive) | > 100 µM (inactive) | 44.2 µM (inactive) | 62.1 µM (inactive) | > 100 µM (inactive) | > 100 µM (inactive) | > 100 µM (inactive) | > 100 µM (inactive) | > 100 µM (inactive) | > 100 µM (inactive) | 10.4 µM (inactive) | > 100 µM (inactive) | > 100 µM (inactive) | > 100 µM (inactive) | > 100 µM (inactive) | > 100 µM (inactive) | > 100 µM (inactive) | 32.4 µM (inactive) |
